molecular target: ERBB2;PIK3CA (human) (UniProt P42336); assay: Inhibition of ERBB2 and PIK3CA Kinase Activity in MDA361 Cells; settings: mda-361
Sequence (P42336 whole entry, looked up): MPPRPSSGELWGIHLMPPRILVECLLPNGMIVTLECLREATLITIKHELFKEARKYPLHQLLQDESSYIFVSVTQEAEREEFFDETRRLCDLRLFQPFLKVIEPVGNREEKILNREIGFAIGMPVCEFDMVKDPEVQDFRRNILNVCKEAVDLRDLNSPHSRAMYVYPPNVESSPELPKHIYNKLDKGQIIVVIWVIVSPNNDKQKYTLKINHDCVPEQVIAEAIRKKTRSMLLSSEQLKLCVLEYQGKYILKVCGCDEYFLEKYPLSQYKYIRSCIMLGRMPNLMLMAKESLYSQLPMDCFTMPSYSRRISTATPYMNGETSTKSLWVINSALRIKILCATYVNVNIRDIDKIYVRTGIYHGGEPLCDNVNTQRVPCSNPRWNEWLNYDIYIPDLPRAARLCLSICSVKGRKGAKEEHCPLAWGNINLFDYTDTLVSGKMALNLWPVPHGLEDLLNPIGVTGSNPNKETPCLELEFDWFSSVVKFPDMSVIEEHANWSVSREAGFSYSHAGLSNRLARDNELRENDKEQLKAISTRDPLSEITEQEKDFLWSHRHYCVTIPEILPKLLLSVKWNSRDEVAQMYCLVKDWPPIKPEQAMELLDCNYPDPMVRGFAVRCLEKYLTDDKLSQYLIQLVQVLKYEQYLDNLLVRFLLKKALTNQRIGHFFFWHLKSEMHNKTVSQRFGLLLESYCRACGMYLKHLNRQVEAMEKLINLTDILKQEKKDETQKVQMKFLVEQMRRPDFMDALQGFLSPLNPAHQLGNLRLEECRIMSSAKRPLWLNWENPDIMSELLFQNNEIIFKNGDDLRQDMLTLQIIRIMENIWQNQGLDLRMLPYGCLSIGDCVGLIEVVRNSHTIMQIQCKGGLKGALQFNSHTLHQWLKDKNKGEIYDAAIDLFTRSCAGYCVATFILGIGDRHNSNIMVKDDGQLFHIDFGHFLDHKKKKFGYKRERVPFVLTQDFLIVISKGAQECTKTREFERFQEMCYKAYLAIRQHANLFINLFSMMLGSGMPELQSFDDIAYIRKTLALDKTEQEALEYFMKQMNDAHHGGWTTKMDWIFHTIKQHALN

IC50 [nM]	SMILES
< 3	CN(C)CCN(C)C(=O)c1ccc(NC(=O)Nc2ccc(-c3nc(N4CCOCC4)c4ccn(CC(F)(F)F)c4n3)cc2)cc1

molecular target: PIK3CA (human) (UniProt P42336); assay: Inhibition of PIK3CA Kinase Activity (Fluorescence Polarization Format Assay); settings: not given
Sequence (P42336 whole entry, looked up): as above

IC50 [nM]	SMILES
226	CCNC(=O)Nc1ccc(-c2nc(N3CCOCC3)c3ccn(CCN(C)C)c3n2)cc1
76	CN(C)CCn1ccc2c(N3CCOCC3)nc(-c3cccc(O)c3)nc21
30	O=C(Nc1ccncc1)Nc1ccc(-c2nc(N3CCOCC3)c3ccn(CCN4CCCC4)c3n2)cc1
1510	Cc1cccc(-c2nc(N3CCOCC3)c3[nH]ccc3n2)c1
43	Oc1cccc(-c2nc(N3CCOCC3)c3cc[nH]c3n2)c1

From the Kinase Knowledgebase extract (Sharma et al. 2016)
